{"source": "patent US9872840B2", "about": "“Effect of garcinol in delaying the progression of diabetic nephropathy” (Delhi Institute of Pharmaceutical Sciences and Research, priority 2013, dated 2018)", "key": {"STZ diabetic rats [1]": {"system": "STZ diabetic rats", "test": "Homeostatic model assessment (HOMA-Index, β-cell function) in STZ diabetic rats", "format": "in vivo, rat", "conditions": "STZ diabetic rats after treatment; mean ± S.E.M., five animals", "excerpt": "The homeostatic model assessment (HOMA) is a method used to quantify insulin resistance and beta-cell function (Homeostasis model assessment: insulin resistance and beta-cell function from fasting plasma glucose and insulin concentrations in man. Diabetologia 28: 412-9.). The approximating equation for insulin resistance, in the early model, used a fasting plasma sample, and was derived by use of the insulin-glucose product, divided by a constant. HOMA-IR=(Glucose×Insulin)/405;HOMA-% B=([…])/(Glucose-63)\nWhere IR is insulin resistance and % B is the β-cell function where Glucose is given in mg/dl and Insulin is given in μU/mL (both during fasting). Garcinol inhibited insulin resistance assessed by HOMA-Index with significance when compared with the diabetic group."}, "STZ diabetic rats [2]": {"system": "STZ diabetic rats", "test": "Tubulointerstitial matrix index (Masson's trichrome)", "format": "in vivo, rat", "conditions": "kidney of STZ diabetic rats, 8 weeks; semi-quantified; garcinol 200 mg/kg, olmesartan 6 mg/kg, glimepiride 1 mg/kg", "procedure": "(§1) Kidney sections were stained with periodic acid-Schiff's reagent and Masson's modified trichrome to assess glomerulosclerosis and collagenous tubulointerstitial matrix, respectively.\nThe accumulation of matrix within the tubulointerstitial was assessed on Masson's trichrome stained sections. Blue area on a trichrome-stained section was selected for its color range and the proportional area of tissue with this range of color was then semi-quantified as tubulointerstitial matrix index (TIMI)."}, "STZ diabetic rats [3]": {"system": "STZ diabetic rats", "test": "Fasting and post prandial blood glucose in STZ diabetic rats", "format": "in vivo, rat", "design": "Reduction of post prandial glucose: concentration or dose not given beside the values", "procedure": "(§2) The Garcinol used for the experimental studies was bought from Sami Labs, Hyderabad. It was administered at the dose of 200 mg/kg dispersed in water with 1% CMC. Further, the experimental procedures were conducted according to the Institutional Animal Ethical Committee (protocol no. DIPSAR/IAEC/2009/01) and CPCSEA guidelines. All rats were housed under conventional conditions with controlled temperature, humidity and light (12 hours light-dark cycle), and were provided with a standard commercial diet and water (ad libitum). Healthy albino rats of Wistar strain were kept for breeding. Diabetes was induced by administration of streptozotocin (STZ, 90 mg/kg, i.p.) to a group of 2 day old pups. Age-matched control rats were given an equal volume of vehicle and considered as ‘Normal’ group of rats. Six weeks after injection, the blood glucose level was measured from the tail vein. Rats with a fasting blood glucose level over 160 mg/dl were considered as diabetic.\n(§3) After 6 weeks, four groups of animals, each comprising of 8 animals were made. The groups were assigned to receive vehicle or garcinol (200 mg/kg dispersed in 1% CMC); Olmesartan (6 mg/kg/day) and Glimepiride (1 mg/kg/day) once daily for 8 weeks. After the final drug administration, body weight was measured and blood samples were collected in both fasting and post prandial conditions. The kidney of treated and untreated animals were isolated and fixed in 10% buffered formalin solution to prepare paraffin sections.\nHowever, the decrease was less than antidiabetic reference glimepiride treatment (˜27%). Moreover, the reduction of post prandial glucose with garcinol treatment (˜36%) was more than olmesartan (˜10%) but was lower than observed with glimepiride treatment (almost 43%) when compared to diabetic group."}, "STZ diabetic rats [4]": {"system": "STZ diabetic rats", "test": "Hemodynamic parameters by tail cuff apparatus", "format": "in vivo, rat", "procedure": "Hemodynamic parameters were measured using tail cuff apparatus (Non-invasive measurement of Blood Pressure-Kent Scientific, USA). Garcinol was also observed to improve the systolic, diastolic and mean Blood Pressure."}, "STZ diabetic rats [5]": {"system": "STZ diabetic rats", "test": "DNA fragmentation assay (TUNEL) for apoptosis in kidney", "format": "in vivo, rat", "conditions": "kidney of STZ diabetic rats, 8 weeks, garcinol 200 mg/kg, olmesartan 6 mg/kg, glimepiride 1 mg/kg", "procedure": "For detection and localization of apoptosis in kidney, the technique of terminal deoxynucleotidyl transferase-mediated dUTP nick end labeling (TUNEL) (Apo-BrdU-IHC™ In Situ DNA Fragmentation Assay Kit, Biovison, USA) were employed. Briefly, sections were deparaffinized, hydrated, and digested with proteinase K (20 μg/ml), and then added biotinylated dUTP to the 3′ end of DNA fragments by incubating sections in 0.05 mol/l Tris-HCl buffer (pH 7.6) with 0.03 U/μl TdT and 0.04 nmol/μl biotin-11-dUTP at 37° C. for 1 h. The sections were rinsed in PBS. Endogenous peroxidase was blocked with 0.3% H2O2 in distilled H2O. The sections were rinsed with PBS and covers with 2% blocking solution in 0.1 mol/l sodium maleate to reduce background staining. The sections were then incubated with avidin-peroxidase complexes in PBS (1:50) for 30 min and rinsed with PBS (3×5 min). Peroxidase activity was visualized with 3,3′-diaminobenzidine until the brown product was clearly visible. The sections were then counterstained with methyl green. The positive apoptotic cells were the cells with brown nucleus 2.10."}, "STZ diabetic rats [6]": {"system": "STZ diabetic rats", "test": "Renal function and biochemical parameters in plasma/serum of STZ diabetic rats", "format": "in vivo, rat", "conditions": "8 weeks, garcinol 200 mg/kg, olmesartan 6 mg/kg, glimepiride 1 mg/kg", "procedure": "as §2, §3\nBiochemical estimation for glucose, insulin, albumin and total proteins; glomerular proteins (viz β-2 microglobulin, serum cystatin c and serum creatinine) for the determination of GFR; inflammatory cytokines and growth factors like Tumor necrosis factor (TNF-α), Nitric Oxide (NO), Transforming growth factor (TGF-β1) and Vascular endothelial growth factor (VEGF) and kidney specific molecular markers involving adiponectin and erythropoietin were made in plasma/serum."}, "STZ diabetic rats [7]": {"system": "STZ diabetic rats", "test": "Kidney histopathology, glomerulosclerotic index (periodic acid-Schiff)", "format": "in vivo, rat", "conditions": "kidney of STZ diabetic rats, 8 weeks; sclerosis graded 0 to 4; garcinol 200 mg/kg, olmesartan 6 mg/kg, glimepiride 1 mg/kg", "excerpt": "as §1\nIn 4 μm kidney sections stained with periodic acid-Schiff's reagent, 150 glomeruli from each animal were examined. The extent of sclerosis in each glomerulus was subjectively graded on a scale of 0 to 4, with the following grades: grade 0 normal, grade 1 sclerotic area <25% (minimal), grade 2 sclerotic area 25-50% (moderate), grade 3 sclerotic area 50-75% (moderate to severe) and grade 4 sclerotic area 75-100% (severe). A glomerulosclerotic index was then calculated using the formula: […]\nWhere GSI is glomerulosclerotic index, Fi is the % of glomeruli in the rat with a given score (i)."}, "rat nephrin": {"system": "rat nephrin", "test": "Immunohistochemistry for nephrin in kidney", "format": "in vivo", "conditions": "kidney of STZ diabetic rats, 8 weeks; garcinol 200 mg/kg, olmesartan 6 mg/kg, glimepiride 1 mg/kg", "procedure": "Immunohistochemistry was done as previously described according to a modified method using a Polyclonal (C-Terminus) Antibody which is identical to rat nephrin. These experiments were done using 4 micron […] kidney sections, as previously reported. Paraffin-embedded tissues sections were deparaffinized in microwave oven for 3 minutes. The sections were rehydrated in graded series of xylene and alcohols. Endogenous peroxidase activity was blocked by 3% hydrogen peroxide in distilled water for 15 minutes. Antigen retrieval was achieved by steam heating in a solution of citrate buffer, pH 6.0 for 30 minutes. Sections were blocked with 10% normal goat serum for polyclonal antibodies. Sections were then incubated for one hour with primary antibody Polyclonal (C-Terminus) Antibody which is identical to rat nephrin. The sections were then incubated in avidin-biotin complex at 1:25 dilution for 30 min at room temperature and developed using diaminobenzidine (DAB) as chromogen. After washing, the sections were counter-stained with hematoxylin and coverslipped. Negative controls were carried out by incubation in the absence of the primary antibody. The quantification of nephrin was done using point counting technique for each animal as described in established method. Davis B J, Johnston C I, Burrell, L M, Burns W C, Kubota E, Cao Z, Cooper M E, Allen T J. Renoprotective effects of vasopeptidase inhibition in an experimental model of diabetic nephropathy. Diabetologia. 2003; 46(7): 961-71."}, "[8]": {"conditions": "baseline before treatment, mean ± S.E.M., eight animals"}, "[9]": {"conditions": "once daily for 8 weeks, garcinol 200 mg/kg, olmesartan 6 mg/kg/day, glimepiride 1 mg/kg/day, mean ± S.E.M., eight animals"}}, "data": [{"compound": "C=C(C)[C@@H](CC=C(C)C)C[C@@]12C[C@@H](CC=C(C)C)C(C)(C)[C@@](CC=C(C)C)(C(=O)C(C(=O)c3ccc(O)c(O)c3)=C1O)C2=O", "note": "[Garcinol]", "values": [{"measurement": "% BETA-CELL FUNCTION", "setting": "STZ diabetic rats [1]", "value": "31.4 ± 3.17"}, {"measurement": "HOMA-INDEX", "setting": "STZ diabetic rats [1]", "value": "1.55 ± 0.0827"}, {"measurement": "TIMI (tubulointerstitial matrix index)", "setting": "STZ diabetic rats [2]", "value": 2}, {"measurement": "Reduction of fasting blood glucose", "setting": "STZ diabetic rats [3]; 8 weeks treatment", "value": "~18", "unit": "%"}, {"measurement": "Reduction of post prandial glucose", "setting": "STZ diabetic rats [3]; 8 weeks treatment, compared to diabetic group", "value": "~36", "unit": "%"}, {"measurement": "Blood glucose, fasting, before treatment", "setting": "STZ diabetic rats [3]; [8]", "value": "166.2 ± 4.9", "unit": "mg/dL"}, {"measurement": "Blood glucose, post prandial, before treatment", "setting": "STZ diabetic rats [3]; [8]", "value": "287 ± 24.7", "unit": "mg/dL"}, {"measurement": "Blood glucose, fasting, after treatment", "setting": "STZ diabetic rats [3]; [9]", "value": "136.2 ± 5.86", "unit": "mg/dL"}, {"measurement": "Blood glucose, post prandial, after treatment", "setting": "STZ diabetic rats [3]; [9]", "value": "190 ± 5.27", "unit": "mg/dL"}, {"measurement": "Diastolic blood pressure, after Garcinol administration", "setting": "STZ diabetic rats [4]; after Garcinol administration", "value": 112}, {"measurement": "Mean blood pressure, after Garcinol administration", "setting": "STZ diabetic rats [4]; after Garcinol administration", "value": 125}, {"measurement": "Systolic blood pressure, after Garcinol administration", "setting": "STZ diabetic rats [4]; after Garcinol administration", "value": 153}, {"measurement": "Diastolic blood pressure, before treatment", "setting": "STZ diabetic rats [4]; before treatment", "value": 127}, {"measurement": "Mean blood pressure, before treatment", "setting": "STZ diabetic rats [4]; before treatment", "value": 139}, {"measurement": "Systolic blood pressure, before treatment", "setting": "STZ diabetic rats [4]; before treatment", "value": 165}, {"measurement": "Apoptosis", "setting": "STZ diabetic rats [5]", "value": 20, "unit": "% FA"}, {"measurement": "Adiponectin", "setting": "STZ diabetic rats [6]", "value": "3.297 ± 0.56", "unit": "µg/mL"}, {"measurement": "Beta-2 microglobulin (GFR)", "setting": "STZ diabetic rats [6]", "value": "0.3488 ± 0.12", "unit": "µg/mL"}, {"measurement": "Erythropoietin", "setting": "STZ diabetic rats [6]", "value": "0.3508 ± 0.029", "unit": "mlU/ml"}, {"measurement": "Nitric Oxide", "setting": "STZ diabetic rats [6]", "value": "0.32 ± 0.026", "unit": "nmol/µL"}, {"measurement": "Plasma Insulin", "setting": "STZ diabetic rats [6]", "value": "12.13 ± 1.17", "unit": "ng/mL"}, {"measurement": "Serum Creatinine (GFR)", "setting": "STZ diabetic rats [6]", "value": "1.804 ± 0.36", "unit": "mg/dL"}, {"measurement": "Serum CystatinC (GFR)", "setting": "STZ diabetic rats [6]", "value": "0.4098 ± 0.028", "unit": "ng/mL"}, {"measurement": "TGF-β", "setting": "STZ diabetic rats [6]", "value": "3.908 ± 0.82", "unit": "pg/mL"}, {"measurement": "TNF-α", "setting": "STZ diabetic rats [6]", "value": "0.04059 ± 0.0092", "unit": "pg/mL"}, {"measurement": "Total Proteins", "setting": "STZ diabetic rats [6]", "value": "2.05 ± 0.14", "unit": "mg/mL"}, {"measurement": "VEGF", "setting": "STZ diabetic rats [6]", "value": "57.21 ± 3.89", "unit": "pg/mL"}, {"measurement": "GSI (glomerulosclerotic index)", "setting": "STZ diabetic rats [7]", "value": 1.4}, {"measurement": "Nephrin", "setting": "rat nephrin", "value": 50, "unit": "% FA"}]}]}
